Data on two compounds can be found in patent US12569502B2, “Use of bile acids and derivatives thereof in preparation of GPR39 agonist” (PEKING UNIVERSITY, priority 2019, dated 2026).

SMILES strings stand for the structures. Where a chain is given by its changes, count along the chain named.

One test has as its target T1, GPR39 mutant D330A (Mus musculus, UniProt Q5U431, D330A).
T1 construct: 3HA (N); P2A-mCherry (C); expressed in transfected cells; host or cells: HEK293T, transient (Lipofectamine 3000)
T1 sequence (Q5U431 1-456 D330A): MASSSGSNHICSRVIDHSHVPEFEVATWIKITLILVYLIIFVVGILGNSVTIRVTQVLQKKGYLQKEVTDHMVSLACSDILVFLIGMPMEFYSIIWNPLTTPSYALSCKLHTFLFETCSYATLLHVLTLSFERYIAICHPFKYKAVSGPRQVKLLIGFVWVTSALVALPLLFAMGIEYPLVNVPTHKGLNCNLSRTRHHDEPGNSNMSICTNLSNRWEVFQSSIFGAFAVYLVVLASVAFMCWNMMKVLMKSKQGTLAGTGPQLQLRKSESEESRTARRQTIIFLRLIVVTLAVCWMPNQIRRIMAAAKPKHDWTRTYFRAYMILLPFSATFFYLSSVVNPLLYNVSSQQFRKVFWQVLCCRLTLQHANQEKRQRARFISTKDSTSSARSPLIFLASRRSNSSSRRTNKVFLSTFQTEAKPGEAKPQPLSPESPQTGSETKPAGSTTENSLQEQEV
Description: Calcium imaging of GPR39 activation site mutant, transiently transfected cells. The class given is cell-based. The settings on record: FIG. 7. The source says: (§1) GPR39 mutants E90A, F115A, E116A and D330A were firstly constructed according to the method of Example 5.

The next test deals with T2, GPR39 mutant E116A (Mus musculus, UniProt Q5U431, E116A).
T2 construct: 3HA (N); P2A-mCherry (C); expressed in transfected cells; host or cells: HEK293T, transient (Lipofectamine 3000)
T2 sequence (Q5U431 1-456 E116A): T1 sequence (Q5U431 1-456 D330A) with E116A, A330D
Described as above. The class given is cell-based. The settings on record: FIG. 7.
Excerpt: as §1

In the next test the target is T3, GPR39 mutant E90A (Mus musculus, UniProt Q5U431, E90A).
T3 construct: 3HA (N); P2A-mCherry (C); expressed in transfected cells; host or cells: HEK293T, transient (Lipofectamine 3000)
T3 sequence (Q5U431 1-456 E90A): T1 sequence (Q5U431 1-456 D330A) with E90A, A330D
Described as above. The class given is cell-based. The settings on record: FIG. 7.
Excerpt: as §1

Test [1] relates to GPR39. Description: Confocal calcium imaging of Ghrelin receptor family. The class given is cell-based. The settings on record: 200 μM.
Test [2] deals with T4, Motilin receptor (MLNR, NP_001498.1) (Homo sapiens, UniProt O43193).
T4 construct: mCherry; host or cells: HEK293T, transient
The experiment in a line: Confocal calcium imaging of Ghrelin receptor family, overexpressed in HEK293T cells. The class given is cell-based. The settings on record: 200 μM. The protocol:
(§2) According to the transient transfection method of Example 5.2, the 6 receptors of Ghrelin family except GPR39 were overexpressed in HEK293T cells respectively (the expression vectors for these 6 receptors came from the research group of Rao Yi, Peking University), and calcium dye was incubated. An inverted laser confocal microscope (leica Co.) was used to detect the activation of the 6 receptors of Ghrelin family by LCAS. The specific operations were as below: placing the cells to be detected on the microscope stage, detecting the fluorescence signal value of the calcium dye Fluo8 with the 488 nm channel, and detecting the fluorescence signal value of mCherry with the 543 nm channel. All receptors fused to express the red fluorescence protein mCherry, and the expression of receptors was determined by detecting the red fluorescence emitted from mCherry.

The target of test [3] is T5, Neurotensin receptor 1 (NTSR1, NP_002522.2) (Homo sapiens, UniProt P30989).
T5 construct: mCherry; host or cells: HEK293T, transient
Described as above. The settings on record: 200 μM. The class given is cell-based. The protocol:
as §2

The target in test [4] is T6, GPR39 (Homo sapiens, UniProt O43194).
T6 sequence (O43194 1-453): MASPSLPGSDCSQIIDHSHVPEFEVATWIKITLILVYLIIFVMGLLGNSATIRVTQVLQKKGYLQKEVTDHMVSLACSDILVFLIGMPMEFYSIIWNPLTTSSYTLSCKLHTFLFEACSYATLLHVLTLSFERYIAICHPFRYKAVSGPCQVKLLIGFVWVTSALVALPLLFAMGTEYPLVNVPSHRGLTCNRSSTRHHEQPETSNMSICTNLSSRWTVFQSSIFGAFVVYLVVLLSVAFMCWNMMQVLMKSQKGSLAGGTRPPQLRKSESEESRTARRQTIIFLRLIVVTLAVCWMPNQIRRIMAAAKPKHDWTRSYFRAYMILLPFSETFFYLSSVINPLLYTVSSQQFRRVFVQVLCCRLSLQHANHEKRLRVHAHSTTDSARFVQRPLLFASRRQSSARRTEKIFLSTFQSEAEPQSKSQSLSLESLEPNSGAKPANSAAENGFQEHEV
The settings on record: cell line that transiently or stably expresses GPR39; read-out: phosphoinositide accumulation EC50; cited from earlier work.

T5 sequence (P30989 whole entry): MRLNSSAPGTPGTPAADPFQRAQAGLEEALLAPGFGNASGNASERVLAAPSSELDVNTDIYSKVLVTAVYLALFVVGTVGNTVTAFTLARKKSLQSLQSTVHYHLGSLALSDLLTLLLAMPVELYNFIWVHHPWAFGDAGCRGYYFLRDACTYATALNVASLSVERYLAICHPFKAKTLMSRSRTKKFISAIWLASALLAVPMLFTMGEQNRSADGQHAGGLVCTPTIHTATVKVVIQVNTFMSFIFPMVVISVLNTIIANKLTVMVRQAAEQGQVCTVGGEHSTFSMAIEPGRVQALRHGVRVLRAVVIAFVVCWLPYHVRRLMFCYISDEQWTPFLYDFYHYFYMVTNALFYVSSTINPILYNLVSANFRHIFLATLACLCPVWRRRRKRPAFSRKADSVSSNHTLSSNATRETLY
T4 sequence (O43193 whole entry): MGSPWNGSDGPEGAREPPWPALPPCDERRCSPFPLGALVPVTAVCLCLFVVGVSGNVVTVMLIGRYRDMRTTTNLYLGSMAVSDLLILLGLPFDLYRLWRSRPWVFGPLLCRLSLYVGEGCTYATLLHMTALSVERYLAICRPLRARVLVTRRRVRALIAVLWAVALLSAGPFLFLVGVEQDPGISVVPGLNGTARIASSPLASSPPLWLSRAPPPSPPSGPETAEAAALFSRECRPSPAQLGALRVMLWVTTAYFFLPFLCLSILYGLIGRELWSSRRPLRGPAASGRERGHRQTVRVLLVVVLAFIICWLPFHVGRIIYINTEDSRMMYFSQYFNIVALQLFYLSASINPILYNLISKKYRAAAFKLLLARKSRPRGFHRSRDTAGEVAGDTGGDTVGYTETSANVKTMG

Regarding `C[C@H](CCC(=O)O)[C@H]1CC[C@H]2[C@@H]3CC[C@@H]4C[C@H](OS(=O)(=O)O)CC[C@]4(C)[C@H]3CC[C@]12C` [LCAS], on GPR39 mutant D330A, the “activation of mutant D330A (calcium imaging)” value is “activated”. Besides, the “activation of mutant E116A (calcium imaging)” value on GPR39 mutant E116A is listed as “activated”. Besides, on GPR39 mutant E90A, the “activation of mutant E90A (calcium imaging)” value was “activated”. Also, the “activation of GPR39 (calcium imaging)” value in the test with GPR39 [1] is on record as “may be activated”. The “activation of MLNR (calcium imaging)” value in test [2] is on record as “cannot be activated”. Also, in test [3], the “activation of NTSR1 (calcium imaging)” value is “cannot be activated”.
By EC50 is commonly meant the midpoint of the concentration-response curve. Turning to `[Zn+2]` [Zinc ions, reference compound], the EC50 at GPR39 [4] was 22 µM.
